Data published in US4394503A, “Cephalosporin derivatives” (priority 1981, dated 1983).
Converted amounts (≈) assume the structure as drawn. Like-named read-outs stand apart in the source and are kept apart here.

What was measured:
P. mirabilis A9554 = assay: MIC against selected test organisms (Table 2); format: cell-based; settings: Proteus mirabilis
H. influenzae(AMP-R) = assay: In vitro activity against species of Streptococcus, Neisseria and Haemophilus (Table 3); format: cell-based; settings: Haemophilus influenzae, read-out: Geometric Mean of MIC
P. morganii A9553 = assay: MIC against selected test organisms (Table 2); format: cell-based; settings: Morganella morganii
B. fragilis A21900 = assay: MIC against selected test organisms (Table 2); format: cell-based; settings: Bacteroides fragilis
S. pneumoniae = assay: In vitro activity against species of Streptococcus, Neisseria and Haemophilus (Table 3); format: cell-based; settings: read-out: Geometric Mean of MIC
N. meningitidus = assay: as above; format: cell-based; settings: read-out: Geometric Mean of MIC
E. coli A15148 = assay: MIC against selected test organisms (Table 2); format: cell-based; settings: Escherichia coli
K. pneumoniae D11 = assay: MIC against selected test organisms (Table 2); format: cell-based; settings: Klebsiella pneumoniae
B. fragilis A22695 = assay: MIC against selected test organisms (Table 2); format: cell-based; settings: Bacteroides fragilis
P. aeruginosa A15150 = assay: MIC against selected test organisms (Table 2); format: cell-based; settings: Pseudomonas aeruginosa
B. fragilis A20928-1 = assay: MIC against selected test organisms (Table 2); format: cell-based; settings: Bacteroides fragilis
E. coli Juhl [1] = assay: MIC against selected test organisms (Table 2); format: cell-based; settings: Escherichia coli, read-out: Minimum Inhibitory Concentration
B. fragilis A22021 = assay: MIC against selected test organisms (Table 2); format: cell-based; settings: Bacteroides fragilis, A22021, read-out: Minimum Inhibitory Concentration
C. difficile A21675 = assay: MIC against selected test organisms (Table 2); format: cell-based; settings: Clostridioides difficile
[2] = tested on: Penicillin-resistant S. aureus (Gp-Ib); assay: In vitro antibacterial activity, two-fold agar dilution, Mueller-Hinton agar (Table 1), group Gp-Ib; format: cell-based
in vivo = settings: mouse, im
Experimental: Blood samples were collected from the orbital sinuses into heparinized capillary tubes and assayed by the paper disc-agar diffusion method using E. coli as the test organism. The half-life values and areas under the curve were determined.

S. pyrogenes = assay: In vitro activity against species of Streptococcus, Neisseria and Haemophilus (Table 3); format: cell-based; settings: read-out: Geometric Mean of MIC
Pr. mirabilis A9900 = assay: Therapeutic efficacy in experimentally infected mice (Table 5); format: in vivo; settings: Proteus mirabilis, A9900, im, 120 h; i.m., immediately after intraperitoneal challenge, 5 days observation; read-out: PD50 (median protective dose)
Experimental: (§1) The test compounds were administered intramuscularly immediately after the bacterial challenge.

S. aureus BX-1633 = assay: as above; format: in vivo; settings: Staphylococcus aureus, BX1633, im, 120 h; i.m., immediately after intraperitoneal challenge, 5 days observation; read-out: PD50 (median protective dose)
Experimental: as §1

P. aeruginosa A9843 [3] = assay: as above; format: in vivo; settings: Pseudomonas aeruginosa, A9843, im, 120 h; i.m., immediately after intraperitoneal challenge, 5 days observation; read-out: PD50 (median protective dose)
Experimental: as §1

E. cloacae A9656 = assay: as above; format: in vivo; settings: Enterobacter cloacae, A9656, im, 120 h; i.m., immediately after intraperitoneal challenge, 5 days observation; read-out: PD50 (median protective dose)
Experimental: as §1

S. aureus Smith = assay: as above; format: in vivo; settings: Staphylococcus aureus, im, 120 h; i.m., immediately after intraperitoneal challenge, 5 days observation; read-out: PD50 (median protective dose)
Experimental: as §1

E. coli Juhl [4] = assay: as above; format: in vivo; settings: Escherichia coli, im, 120 h; i.m., immediately after intraperitoneal challenge, 5 days observation; read-out: PD50 (median protective dose)
Experimental: as §1

K. pneumoniae A 9867 = assay: MIC against selected test organisms (Table 2); format: cell-based; settings: Klebsiella pneumoniae
B. fragilis A22533 = assay: MIC against selected test organisms (Table 2); format: cell-based; settings: Bacteroides fragilis
P. aeruginosa A20717 = assay: MIC against selected test organisms (Table 2); format: cell-based; settings: Pseudomonas aeruginosa
[5] = tested on: Cephalothin-sensitive E. coli, Kl. pneumoniae and Pr. mirabilis (Gn-Ia); assay: In vitro antibacterial activity, two-fold agar dilution, Mueller-Hinton agar (Table 1), group Gn-Ia; format: cell-based; settings: read-out: Geometric Mean of MIC
[6] = tested on: Cephalothin-resistant E. coli and Kl. pneumoniae (Gn-Ib); assay: In vitro antibacterial activity, two-fold agar dilution, Mueller-Hinton agar (Table 1), group Gn-Ib; format: cell-based, E. coli (3) and Kl. pneumoniae (3); settings: Escherichia coli, read-out: Geometric Mean of MIC
P. aeruginosa A9843 [7] = assay: MIC against selected test organisms (Table 2); format: cell-based; settings: Pseudomonas aeruginosa

**Q.** What does the source list for `CSc1cc[n+](CC2=C(C(=O)[O-])N3C(=O)C(NC(=O)/C(=N\OC(C)(C)C(=O)O)c4csc(N)n4)C3SC2)cc1` (stereo not shown) [Example 2, 7-[(Z)-2-(2-Aminothiazol-4-yl)-2-(2-carboxyprop-2-oxyimino)-acetamido]-3-[(4-methylthiopyridinium)methyl]-3-cephem-4-carboxylate]?
**A.** MIC (P. mirabilis A9554; A9554, Gn-Ia, CET-S, read-out: Minimum Inhibitory Concentration): 0.05 µg/mL (≈ 0.0844 µM); MIC (H. influenzae(AMP-R); AMP-R, 3 strains): 0.4 µg/mL (≈ 0.675 µM); MIC (P. morganii A9553; A9553, Gn-II, CET-R, read-out: Minimum Inhibitory Concentration): 1.6 µg/mL (≈ 2.7 µM); MIC (B. fragilis A21900; A21900, Anaerobe, CET-S, read-out: Minimum Inhibitory Concentration): 6.3 µg/mL (≈ 10.6 µM); MIC (S. pneumoniae; 5 strains): 0.2 µg/mL (≈ 0.337 µM); MIC (N. meningitidus; 5 strains): 0.013 µg/mL (≈ 0.0219 µM); MIC (E. coli A15148; A15148, Gn-Ib, CET-R, read-out: Minimum Inhibitory Concentration): 0.2 µg/mL (≈ 0.337 µM); MIC (K. pneumoniae D11; D11, Gn-Ia, CET-S, read-out: Minimum Inhibitory Concentration): 0.1 µg/mL (≈ 0.169 µM); MIC (B. fragilis A22695; A22695, Anaerobe, AMP-R, read-out: Minimum Inhibitory Concentration): 50 µg/mL (≈ 84.4 µM); MIC (P. aeruginosa A15150; A15150, Gn-III, CET-R, read-out: Minimum Inhibitory Concentration): 1.6 µg/mL (≈ 2.7 µM); MIC (B. fragilis A20928-1; A209281, Anaerobe, CET-S, read-out: Minimum Inhibitory Concentration): 3.1 µg/mL (≈ 5.23 µM); MIC (E. coli Juhl [1]; Gn-Ia, CET-S): 0.1 µg/mL (≈ 0.169 µM); MIC (B. fragilis A22021): 12.5 µg/mL (≈ 21.1 µM); MIC (C. difficile A21675; A21675, Anaerobe, CLDM-R, read-out: Minimum Inhibitory Concentration): > 100 µg/mL; MIC ([2]; Staphylococcus aureus; read-out: Geometric Mean of MIC): 6.3 µg/mL (≈ 10.6 µM); AUC (in vivo; 10 mg/kg): 3700 ng·h/mL; concentration at 10 min (in vivo; 10 mg/kg): 4500 ng/mL; concentration at 20 min (in vivo; 10 mg/kg): 5100 ng/mL; concentration at 0.5 h (in vivo; 10 mg/kg): 3800 ng/mL; concentration at 40 min (in vivo; 10 mg/kg): 3200 ng/mL; concentration at 1 h (in vivo; 10 mg/kg): 1100 ng/mL; concentration at 1.5 h (in vivo; 10 mg/kg): 450 ng/mL; half-life (in vivo; 10 mg/kg): 18 min; AUC (in vivo; 20 mg/kg): 10000 ng·h/mL; concentration at 10 min (in vivo; 20 mg/kg): 12000 ng/mL; concentration at 20 min (in vivo; 20 mg/kg): 12000 ng/mL; concentration at 0.5 h (in vivo; 20 mg/kg): 9300 ng/mL; concentration at 40 min (in vivo; 20 mg/kg): 8700 ng/mL; concentration at 1 h (in vivo; 20 mg/kg): 4000 ng/mL; concentration at 1.5 h (in vivo; 20 mg/kg): 1200 ng/mL; half-life (in vivo; 20 mg/kg): 16 min; MIC (S. pyrogenes): 0.2 µg/mL (≈ 0.337 µM); ED50 (Pr. mirabilis A9900): 0.63 mg/kg; ED50 (S. aureus BX-1633): 15 mg/kg; ED50 (P. aeruginosa A9843 [3]): 12 mg/kg; ED50 (E. cloacae A9656): 3.5 mg/kg; ED50 (S. aureus Smith): 5 mg/kg; ED50 (E. coli Juhl [4]): 0.16 mg/kg; MIC (K. pneumoniae A 9867; A9867, Gn-Ib, CET-R, read-out: Minimum Inhibitory Concentration): 3.1 µg/mL (≈ 5.23 µM); MIC (B. fragilis A22533; A22533, Anaerobe, AMP-R, read-out: Minimum Inhibitory Concentration): > 100 µg/mL; MIC (P. aeruginosa A20717; A20717, Gn-III, CET-R, read-out: Minimum Inhibitory Concentration): 6.3 µg/mL (≈ 10.6 µM); MIC [5]: 0.066 µg/mL (≈ 0.111 µM); MIC [6]: 0.89 µg/mL (≈ 1.5 µM); MIC (P. aeruginosa A9843 [7]; A9843, Gn-III, CET-R, read-out: Minimum Inhibitory Concentration): 1.6 µg/mL (≈ 2.7 µM)

**Q.** Which results are given for `CC(C)(O/N=C(\C(=O)N[C@@H]1C(=O)N2C(C(=O)[O-])=C(C[n+]3ccccc3)CS[C@H]12)c1csc(N)n1)C(=O)O` [Ceftazidime, ceftazidime, reference compound]?
**A.** MIC (P. mirabilis A9554; A9554, read-out: Minimum Inhibitory Concentration): 0.05 µg/mL (≈ 0.0915 µM); MIC (H. influenzae(AMP-R)): 0.2 µg/mL (≈ 0.366 µM); MIC (P. morganii A9553; A9553, read-out: Minimum Inhibitory Concentration): 3.1 µg/mL (≈ 5.67 µM); MIC (B. fragilis A21900; A21900, read-out: Minimum Inhibitory Concentration): 25 µg/mL (≈ 45.7 µM); MIC (S. pneumoniae): 0.4 µg/mL (≈ 0.732 µM); MIC (N. meningitidus): 0.1 µg/mL (≈ 0.183 µM); MIC (E. coli A15148; A15148, read-out: Minimum Inhibitory Concentration): 0.4 µg/mL (≈ 0.732 µM); MIC (K. pneumoniae D11; D11, read-out: Minimum Inhibitory Concentration): 0.1 µg/mL (≈ 0.183 µM); MIC (B. fragilis A22695; A22695, read-out: Minimum Inhibitory Concentration): 50 µg/mL (≈ 91.5 µM); MIC (P. aeruginosa A15150; A15150, read-out: Minimum Inhibitory Concentration): 0.8 µg/mL (≈ 1.46 µM); MIC (B. fragilis A20928-1; A209281, read-out: Minimum Inhibitory Concentration): 3.1 µg/mL (≈ 5.67 µM); MIC (E. coli Juhl [1]): 0.1 µg/mL (≈ 0.183 µM); MIC (B. fragilis A22021): 12.5 µg/mL (≈ 22.9 µM); MIC (C. difficile A21675; A21675, read-out: Minimum Inhibitory Concentration): > 100 µg/mL; MIC ([2]; Staphylococcus aureus, read-out: Geometric Mean of MIC): 12.5 µg/mL (≈ 22.9 µM); AUC (in vivo; 10 mg/kg): 5500 ng·h/mL; concentration at 10 min (in vivo; 10 mg/kg): 8000 ng/mL; concentration at 20 min (in vivo; 10 mg/kg): 7800 ng/mL; concentration at 0.5 h (in vivo; 10 mg/kg): 5500 ng/mL; concentration at 40 min (in vivo; 10 mg/kg): 3900 ng/mL; concentration at 1 h (in vivo; 10 mg/kg): 1800 ng/mL; concentration at 1.5 h (in vivo; 10 mg/kg): 400 ng/mL; half-life (in vivo; 10 mg/kg): 16 min; AUC (in vivo; 20 mg/kg): 10000 ng·h/mL; concentration at 10 min (in vivo; 20 mg/kg): 18000 ng/mL; concentration at 20 min (in vivo; 20 mg/kg): 14000 ng/mL; concentration at 0.5 h (in vivo; 20 mg/kg): 11000 ng/mL; concentration at 40 min (in vivo; 20 mg/kg): 7700 ng/mL; concentration at 1 h (in vivo; 20 mg/kg): 2400 ng/mL; concentration at 1.5 h (in vivo; 20 mg/kg): 610 ng/mL; half-life (in vivo; 20 mg/kg): 14 min; MIC (S. pyrogenes): 0.4 µg/mL (≈ 0.732 µM); ED50 (Pr. mirabilis A9900): 0.9 mg/kg; ED50 (S. aureus BX-1633): 15 mg/kg; ED50 (P. aeruginosa A9843 [3]): 6 mg/kg; ED50 (E. cloacae A9656): 3.5 mg/kg; ED50 (S. aureus Smith): 10 mg/kg; ED50 (E. coli Juhl [4]): 0.11 mg/kg; MIC (K. pneumoniae A 9867; A9867, read-out: Minimum Inhibitory Concentration): 6.3 µg/mL (≈ 11.5 µM); MIC (B. fragilis A22533; A22533, read-out: Minimum Inhibitory Concentration): > 100 µg/mL; MIC (P. aeruginosa A20717; A20717, read-out: Minimum Inhibitory Concentration): 6.3 µg/mL (≈ 11.5 µM); MIC [5]: 0.066 µg/mL (≈ 0.121 µM); MIC [6]: 1.6 µg/mL (≈ 2.93 µM); MIC (P. aeruginosa A9843 [7]; A9843, read-out: Minimum Inhibitory Concentration): 1.6 µg/mL (≈ 2.93 µM)
